Results reported in US20030216448A1, “Treatment of neuropathic pain” (priority 2002, published 2003).
Counter-ions that a name gives are not always drawn.

How the values were obtained:
[1] = side effects observed after injection in spinal nerve ligated rats; format: in vivo, rat
[2] = system: formalin model of persistent pain; assay: formalin model of persistent pain, phase two; format: in vivo, rat; details: A-85380 0.75 μmol/kg
Method: The formalin test was used as an assessment of persistent pain. The method, described previously (Bannon et al. 1998) is briefly as follows. Following acclimation to the test environment, 50 μl of a 5% formalin solution was injected subcutaneously into the dorsal surface of one of the rear paws. Only phase two, defined as the 20 minute period from 30 to 50 minutes post formalin injection, was scored for nocifensive behaviors including flinching, licking, and biting.
For formalin experiments, chlorisondamine or its vehicle was infused either 24 h or 40-50 minutes prior to further manipulation. A-85380 was then injected and, 5 minutes later, formalin was injected into the paw. Measures were taken between 30 and 50 minutes post formalin injection.
For experiments with repeated measures, i.e. acute thermal pain and mechanical allodynia, data were first analyzed using a two way repeated measures analysis of variance (ANOVA) with two independent factors. For experiments without repeated measures, i.e. formalin, data were first analyzed using a two way ANOVA with two independent factors. If there was a significant interaction of both factors or of both factors and time, subsequent post hoc one way ANOVAs were performed using each treatment combination as an independent group. The difference in paw withdrawal latencies between the affected and unaffected paw of neuropathic animals tested in acute thermal pain was assessed using a paired t-test. All post hoc significance was determined using Fishers LSD.

[3] = system: rat paw withdrawal model of acute thermal pain; assay: rat paw withdrawal model of acute thermal pain, normal rats; format: in vivo; details: A-85380 0.75 μmol/kg
Source text: For the assessment of acute pain, a paw thermal stimulator was used to evaluate nociceptive responses to an acute thermal stimulus (Anesthesiology Research Laboratory, Department of Anesthesiology, University of California at San Diego, La Jolla, Calif.). The device and behavioral procedure have been described previously (Hargreaves et al., A new and sensitive method for measuring thermal nociception in cutaneous hyperalgesia, Pain 1988, 32:77-88; Dirig et al., Characterization of variables defining hind paw withdrawal latency evoked by radiant thermal stimuli, J. Neurosci. Meth. 1997; 76:183-191). […] The measured nociceptive response was the latency to withdraw the hind paw when heated by light from a focused projector lamp (current set at 4.8 A). […]
(§1) For acute thermal pain experiments, a baseline withdrawal threshold was determined, and then chlorisondamine or its vehicle was administered. […]
For experiments with repeated measures, i.e. acute thermal pain and mechanical allodynia, data were first analyzed using a two way repeated measures analysis of variance (ANOVA) with two independent factors. For experiments without repeated measures, i.e. formalin, data were first analyzed using a two way ANOVA with two independent factors. […] All post hoc significance was determined using Fishers LSD.

[4] = system: rat spinal nerve ligation model of neuropathic pain; assay: mechanical allodynia (von Frey) in the spinal nerve ligation model of neuropathic pain; format: in vivo
Source text: (§2) Under halothane anesthesia, the L5 and L6 spinal nerves were tightly ligated in the manner described previously by Chung et al. (Kim S. H., Chung J. M., An experimental model for peripheral neuropathy produced by segmental spinal nerve ligation in the rat. Pain 1992; 50:355-363.). Briefly, an incision was made on the dorsal portion of the hip, and the muscle was blunt dissected to reveal the spinal processes. The L6 transverse process was removed, and the left L5 and L6 spinal nerves were tightly ligated with 5.0 braided silk suture. The wound was cleaned, the membrane sewn with 4.0 dissolvable Vicryl suture and the skin closed with wound clips.
Implantation of the DRG catheters was performed immediately following nerve ligation, with animals maintained under halothane for the entire procedure (35-40 minutes). Catheters were constructed of PE 20 with small pieces of tygon tubing cemented along the catheter to allow for suture anchoring points during surgery. The left L5 DRG was exposed by removing the posterior articular process of the L5 vertebra. Gelfoam was inserted into the cavity to prevent the catheter from damaging the ganglion. The catheter was sutured to the muscle and fascia, then run subcutaneously to exteriorize between the shoulder blades. Saline was infused into the catheter, and it was heat sealed.
The implantation of i.c.v. cannulae were conducted under sodium pentobarbital (50 mg/kg, i.p. Nembutal) anesthesia with nerve ligation occurring just after the implantation; animals were maintained under anesthesia for the entire procedure (40-45 minutes). Animals were implanted with a 22 gauge guide cannulae (Plastics One, Roanoke Va.) cut to 6 mm. The stereotaxic coordinates from bregma were 1.0 mm posterior, 1.6 mm lateral, and 4.5 ventral (Paxinos G. and Watson C., The rat brain in stereotaxic coordinates. New York: Academic Press, 1997). Three skull screws were attached for stability, and the implant was covered with cranioplastic acrylic.
For i.c.v. (intracerebroventricular) infusion, chlorisondamine (10 μg) was dissolved in 5 μl phosphate buffered saline and infused by syringe pump at a rate of 5 μl/min. The infusion was performed 24 hours prior to testing in order to reduce stress to the animals immediately prior to behavioral testing.
For all other routes of administration including intraperotineal (i.p.), intradermal (i.d.) or onto the DRG, chlorisondamine was dissolved in saline. The final volumes for i.p. injections were 1 ml/kg, for i.d. were 50 μl and for DRG injections were 10 μl. All injections were made by hand held syringe.
For the assessment of neuropathic pain, mechanical allodynia in the affected paw of animals who had undergone spinal nerve ligation was evaluated using von Frey filaments. As described previously (Chaplan et al., Quantitative assessment of tactile allodynia in the rat paw. J Neurosci Meth, 1994; 53:55-62), two weeks following surgery, rats were acclimated to the testing box which was constructed of plexiglass with a wire mesh floor to allow access to the planter surface of the hind paws. Using the Dixons Up-Down method, a baseline level of allodynia was taken with allodynia defined as a withdrawal threshold ≦4 g. Test compounds were then administered and subsequent withdrawal thresholds determined.
For spinal nerve ligation experiments, the timing of antagonist administration depended upon the route of administration. With i.c.v. administration, chlorisondamine or its vehicle was given 24 hours prior to further manipulation. On the day of the experiment, a baseline allodynia score was determined and then A-85380 or its vehicle control was given and measures taken at 15, 30 and 60 minutes post agonist injection. Dose response curves for i.p., i.d. and DRG administration were also determined using this time line. […]

[5] = system: rat paw withdrawal model of acute thermal pain using neuropathic rats; assay: rat paw withdrawal model of acute thermal pain using neuropathic rats; format: in vivo; details: antagonist 0.4 μmol/kg, i.p., A-85380 0.75 μmol/kg
Source text: as §2
For the assessment of acute pain, a paw thermal stimulator was used to evaluate nociceptive responses to an acute thermal stimulus (Anesthesiology Research Laboratory, Department of Anesthesiology, University of California at San Diego, La Jolla, Calif.). […] The measured nociceptive response was the latency to withdraw the hind paw when heated by light from a focused projector lamp (current set at 4.8 A). […]
as §1
To address this concern, neuropathic rats were assessed in the acute thermal model of paw withdrawal. […]

SMILES: Cl.Cl.c1cncc(OC[C@@H]2CCN2)c1 [A-85380, 3-(2(S)-azetidinylmethoxy)pyridine dihydrochloride]
- behaviors induced immediately following injection ([1]; A-85380 0.5-1.0 μmol/kg, i.p.): prostration and ataxia
- time point by which prostration and ataxia abated ([1]; A-85380 0.5-1.0 μmol/kg, i.p.): ≤ 15 min
- analgesia (decrease in flinches), phase two of formalin test ([2]; i.p.): analgesic effects
- antinociception (increase in paw withdrawal latency) ([3]; i.p.): antinociceptive action
- duration of anti-allodynia after DRG infusion ([4]; 10 μg onto the L5 DRG): 15 min
- duration of anti-allodynia after DRG infusion ([4]; 20 μg onto the L5 DRG): 30 min
- anti-allodynia after ipsalateral paw injection ([4]; 10, 20 and 50 μg/rat, i.d., affected paw, predominately at 15 minutes): only the 50 μg dose of A-85380 had an anti-allodynic effect
- anti-allodynia after contralateral paw injection ([4]; 10, 20 and 50 μg/rat, i.d., unaffected paw, predominately at 15 minutes): all three doses of A-85380 induced a significant anti-allodynia
- anti-allodynia when infused onto the L5 DRG ([4]; 10 and 20 μg onto the L5 DRG on the side of the ligation): significant anti-allodynia
- potency to increase paw withdrawal threshold, DRG compared with i.p. and i.d. administration ([4]; i.d. and DRG doses converted to equivalent systemic dose, fifteen-minute time point): decidedly more potent when administered directly onto the DRG
- anti-allodynia (paw withdrawal threshold), systemic administration ([4]; i.p., multiple doses, 15, 30 and 60 minutes): dose dependent anti-allodynia

SMILES: O=C(NO)c1cncc(N2C[C@H]3CNC[C@H]32)c1 [A-420503, (IR, 5S) 5-(3,6-diazabicyclo [3.2.0]hept-6-yl)-N-hydroxy-nicotinamide]
- side effects when injected i.p. ([1]; 62 μmol/kg, i.p.): without any notable side effects
- anti-allodynia at the DRG ([4]; 4.77 μmol/kg, i.p.): significant anti-allodynia
- anti-allodynia when injected i.p. ([4]; 62 μmol/kg, i.p.): significant anti-allodynia
- effect of antagonist pretreatment on the compound's effects at the DRG ([4]; pretreatment with an NMR antagonist): blocked

SMILES: C[N+](C)(C)CCCCCC[N+](C)(C)C [Hexamethonium, hexamethonium]
- effect of systemically administered antagonist on A-85380 induced anti-allodynia ([4]; antagonist 19 μmol/kg, i.p. 30 minutes prior, A-85380 0.75 μmol/kg, i.p.): blocked

SMILES: CNC1(C)C2CCC(C2)C1(C)C (stereo not shown) [Mecamylamine, mecamylamine hydrochloride]
- effect of antagonist on prostration and ataxia following A-85380 injection ([1]; antagonist 1 μmol/kg, i.p. 30 minutes prior to A-85380): blocked the prostration and ataxia
- effect of antagonist pretreatment on A-85380 induced anti-allodynia ([4]; antagonist 1 μmol/kg, i.p. 30 minutes prior, A-85380 0.75 μmol/kg, i.p.): completely blocked

SMILES: C[N+](C)(C)CC[N+]1(C)Cc2c(Cl)c(Cl)c(Cl)c(Cl)c2C1 [chlorisondamine, chlorisondamine diiodide]
- effect of systemically administered antagonist on A-85380-induced analgesia ([2]; antagonist 0.4 μmol/kg, i.p. 40-50 minutes prior to formalin): no significant attenuation
- effect of i.c.v. antagonist on A-85380-induced analgesia ([2]; antagonist 10 μg i.c.v. 24 hours prior, i.p.): completely blocked
- effect of antagonist pretreatment on the antinociceptive action of A-85380 ([3]; antagonist 0.4 μmol/kg, i.p. 30 minutes prior): no effect
- effect of systemically administered antagonist on A-85380 induced anti-allodynia ([4]; antagonist 0.4 μmol/kg, i.p. 30 minutes prior, A-85380 0.75 μmol/kg, i.p.): completely blocked
- effect of systemic antagonist on anti-allodynia induced by A-85380 infused onto the DRG ([4]; antagonist 0.4 μmol/kg, i.p. 30 minutes prior, A-85380 20 μg onto DRG): completely blocked
- effect of i.c.v. antagonist on A-85380 induced anti-allodynia ([4]; antagonist 10 μg i.c.v. 24 hours prior, A-85380 0.75 μmol/kg, i.p.): completely blocked
- effect of antagonist on A-85380 induced antinociception in neuropathic rats [5]: did not alter
